Tests used:
[1] = Analysis of BHPF in human serum (GC–MS); format: in vivo
From the text: In China, college students usually undergo a physical examination before graduation. The volunteers in this study were senior students who were undergoing a physical examination in Beijing. Fifty male and 50 female healthy volunteers (mean age, 23.5±1.2 years) who habitually used plastic water bottles were randomly recruited to participate in this study in June 2015, after appropriate ethical approval was received from the Human Ethics Committee of the Peking University Peoples' Hospital. Each participant provided informed consent and volunteered to give one 10-ml random sample of blood. Fasting blood was collected at Peking University Hospital Medical Center with vacutainer blood collection device (Chengwu Yongkang Medical Products Ltd., China) between 8 and 9 h. […] The blood was collected directly into plain 10-ml glass vacutainer tubes and spun down 30 min later for serum preparation. The serum samples were stored in glass tubes at −80 °C until analysis. The samples were fortified with 5 ng of surrogate standard BHPF-d7, and the pH was adjusted to 6.5 with ammonium acetate. β-Glucuronidase/arylsulfatase (20 μl; Sigma-Aldrich, St Louis, MO) was added to the samples, and they were incubated at 37 °C for 20 h to allow deglucuronidation. […]

[2] = tested on: female CD-1 mice; assay: Improved anti-uterotrophic assay, daily oral gavage for 10 days beginning on PND 24; format: in vivo; settings: BHPF at 27.8 mg kg^−1 bw d^−1
Method: The animals were fed ad libitum with a basic diet from the Laboratory Animal Center of the Academy of Military Medical Sciences (Beijing, China), and drinking water was provided ad libitum. […] The volume of vehicle or chemical solutions administered was adjusted daily based on body weight measured during the dosing period according to the volume-body weight ratio of 5 ml kg^−1 bw.

[3] = tested on: human choriocarcinoma JEG-3 cells; assay: WST-1 cell proliferation assay (cytotoxicity); format: cell-based; settings: from 1.0 × 10^−6 M to lower concentrations; 24 h
Method: Dual-luciferase reporter assays were carried out primarily according to the method described in a previous study. In short, full-length sequences of human oestrogen receptor α and β were amplified by RT-PCR using mRNA from MCF-7 (Supplementary Table 3), and inserted into a pSVSPORT1 (Invitrogen); the resulting constructs were termed pSVhERα and pSVhERβ. A reporter plasmid containing ERE was constructed by inserting four tandem repeats of an ERE of Xenopus laevis vitellogenin A2 into a pGL4.23 vector (Promega), and was termed pGL4-ERE-luc. All of the plasmids constructed were confirmed by sequence analysis. […] The assays were performed in quadruplicate, and the results were expressed as the fold induction of the control after normalization against Renilla luciferase activity. Sigmoidal dose-effect curves were calculated using the GraphPad Prism 4 software. The IC50 values were calculated on the basis of the sigmoidal dose-effect curves. […] After another 24 h, 20 μl of 5 mM WST-1 with 0.2 mM 1-Methoxy-5-methylphenazinium methylsulfate was added for 4 h before the absorbance at 490 nm was measured with a microplate reader (iMark, BioRad). […]
Cell viability was determined using the cell proliferation reagent WST-1 (DOJINDO, Mashiki, Japan). […]
1-Methoxy-5-methylphenazinium methylsulfate was added for four hours before the absorbance at 490 nm was measured with a microplate reader (iMark, BioRad). […]

[4] = tested on: CD-1 mice; assay: Uterotrophic assay, 3 days beginning on PND 21; format: in vivo; settings: combined with 400 μg kg^−1 bw d^−1 E2; 250 and 500 mg kg^−1 d^−1 groups; P<0.01
Method: […] […] Ten mice per group were used for the assays. Error bars indicate the s.d.'s from the average. *P<0.05 compared with the corresponding control. **P<0.01 compared with the corresponding control. Significance was tested by Fisher's LSD test.

## Oc1ccc(C2(c3ccc(O)cc3)c3ccccc3-c3ccccc32)cc1 [BHPF, 9,9-bis(4-hydroxyphenyl)-fluorene]
[1]; human volunteers
  maximal serum BHPF level: 0.7 ng/mL
[1]; volunteers with detectable BHPF
  mean serum BHPF level: 0.34 ± 0.21 ng/mL
[2]
  anti-uterotrophic activity compared with FULV: close to that of FULV at 2 mg kg^−1 bw d^−1
[3]
  cytotoxicity: no obvious cytotoxicity
[4]
  effect on uterotrophic effect of E2: inhibited the uterotrophic effect of E2

From PMC5339874, “Fluorene-9-bisphenol is anti-oestrogenic and may cause adverse pregnancy outcomes in mice” (Nature Communications, 2017)
